Like-named read-outs stand apart in the source and are kept apart here.
System: Klebsiella pneumoniae ZFM4
Experiment: Antibiotic resistance of ZFM4 by disk diffusion method
Format: cell-based
Conditions: for antibiotic resistance of ZFM4 (in words): disk diffusion method
Experimental: The antibiotic susceptibility test disk was purchased from Hangzhou Microbial Reagent Co., Ltd., including amoxicillin, cefuroxime, gentamycin, erythromycin, vancomycin, tetracycline, penicillin, ciprofloxacin, streptomycin, and chloramphenicol.
The antibiotic resistance of Klebsiella pneumoniae ZFM4 was evaluated by disk diffusion method. 100 μL of the second-generation bacterial culture of Klebsiella pneumoniae ZFM4 was coated on LB solid medium and the antibiotic susceptibility test disk was placed on the plate. After aerobically incubation at 37° C. for 48 hrs, the diameter of the inhibition zone was measured. […] That is, Klebsiella pneumoniae ZFM4 had multiple drug resistance.

Molecule: CC[C@H]1OC(=O)[C@H](C)[C@@H](O[C@H]2C[C@@](C)(OC)[C@@H](O)[C@H](C)O2)[C@H](C)[C@@H](O[C@@H]2O[C@H](C)C[C@H](N(C)C)[C@H]2O)[C@](C)(O)C[C@@H](C)C(=O)[C@H](C)[C@@H](O)[C@]1(C)O [Erythromycin]
- zone of inhibition at 15 µg/disc (Klebsiella pneumoniae, ZFM4, Erythromycin disk 15 μg/tablet, 37° C., 48 hrs, read-out: Drug resistance evaluation result): < 13 mm
- antibiotic resistance of ZFM4 (in words): resistant

Molecule: CC1(C)S[C@@H]2[C@H](NC(=O)[C@H](N)c3ccc(O)cc3)C(=O)N2[C@H]1C(=O)O [Amoxicillin]
- zone of inhibition at 25 µg/disc (Klebsiella pneumoniae, ZFM4, Amoxicillin disk 25 μg/tablet, 37° C., 48 hrs, read-out: Drug resistance evaluation result): < 13 mm
- antibiotic resistance of ZFM4 (in words): resistant

Molecule: CO/N=C(\C(=O)N[C@@H]1C(=O)N2C(C(=O)O)=C(COC(N)=O)CS[C@H]12)c1ccco1 [Cefuroxime]
- zone of inhibition at 30 µg/disc (Klebsiella pneumoniae, ZFM4, Cefuroxime disk 30 μg/tablet, 37° C., 48 hrs, read-out: Drug resistance evaluation result): < 10 mm
- antibiotic resistance of ZFM4 (in words): resistant

Molecule: Penicillin
- Drug resistance evaluation result (Penicillin disk 10 μg/tablet, 37° C., 48 hrs): R (≤14)
- antibiotic resistance of ZFM4 (in words): resistant

Molecule: Gentamicin
- Drug resistance evaluation result (Gentamicin disk 10 μg/tablet, 37° C., 48 hrs): R (≤12)
- antibiotic resistance of ZFM4 (in words): resistant

Molecule: O=C(O)c1cn(C2CC2)c2cc(N3CCNCC3)c(F)cc2c1=O [Ciprofloxacin]
- zone of inhibition at 5 µg/disc (Klebsiella pneumoniae, ZFM4, Ciprofloxacin disk 5 μg/tablet, 37° C., 48 hrs, read-out: Drug resistance evaluation result): 15 to 21 mm
- antibiotic resistance of ZFM4 (in words): moderately resistant

Molecule: CN[C@H](CC(C)C)C(=O)N[C@H]1C(=O)N[C@@H](CC(N)=O)C(=O)N[C@H]2C(=O)N[C@H]3C(=O)N[C@H](C(=O)N[C@H](C(=O)O)c4cc(O)cc(O)c4-c4cc3ccc4O)[C@H](O)c3ccc(c(Cl)c3)Oc3cc2cc(c3O[C@@H]2O[C@H](CO)[C@@H](O)[C@H](O)[C@H]2O[C@H]2C[C@](C)(N)[C@H](O)[C@H](C)O2)Oc2ccc(cc2Cl)[C@H]1O [Vancomycin]
- zone of inhibition at 30 µg/disc (Klebsiella pneumoniae, ZFM4, 48 h, read-out: Drug resistance evaluation result): < 14 mm
- antibiotic resistance of ZFM4 (in words): resistant

Molecule: CN(C)[C@@H]1C(O)=C(C(N)=O)C(=O)[C@@]2(O)C(O)=C3C(=O)c4c(O)cccc4[C@@](C)(O)[C@H]3C[C@@H]12 [Tetracycline]
- zone of inhibition at 30 µg/disc (Klebsiella pneumoniae, ZFM4, Tetracycline disk 30 μg/tablet, 37° C., 48 hrs, read-out: Drug resistance evaluation result): > 15 mm

Molecule: [H]/N=C(/N)N[C@H]1[C@H](O)[C@@H](O)[C@H](O[C@@H]2O[C@@H](C)[C@](O)(C=O)[C@H]2O[C@@H]2O[C@@H](CO)[C@H](O)[C@@H](O)[C@@H]2NC)[C@@H](N/C(N)=N\[H])[C@@H]1O [Streptomycin]
- zone of inhibition at 10 µg/disc (Klebsiella pneumoniae, ZFM4, Streptomycin disk 10 μg/tablet, 37° C., 48 hrs, read-out: Drug resistance evaluation result): 11 to 15 mm
- antibiotic resistance of ZFM4 (in words): moderately resistant

Molecule: O=C(N[C@H](CO)[C@H](O)c1ccc([N+](=O)[O-])cc1)C(Cl)Cl [Chloramphenicol]
- zone of inhibition at 30 µg/disc (Klebsiella pneumoniae, ZFM4, Chloramphenicol disk 30 μg/tablet, 37° C., 48 hrs, read-out: Drug resistance evaluation result): < 12 mm
- antibiotic resistance of ZFM4 (in words): resistant
